System: MV-4-11 cells
Assay: Gene expression microarray analysis (Affymetrix PrimeView) and GSEA
Type: cell-based, human
Set-up: RFU PODN (11730768_x_at) / Fold change /veh PODN (11730768_x_at) / RFU LINC00158 (11744669_a_at) / Fold change /veh LINC00158 (11744669_a_at) / RFU DUSP10 (11751237_a_at) / Fold change /veh DUSP10 (11751237_a_at) / RFU ID3 (11757404_x_at) / Fold change /veh ID3 (11757404_x_at) / RFU PLEKHG5 (11737974_s_at) / Fold change /veh PLEKHG5 (11737974_s_at) / RFU LRRC4B (11730491_at) / Fold change /veh LRRC4B (11730491_at) / RFU GIMAP4 (11747438_a_at) / Fold change /veh GIMAP4 (11747438_a_at) / RFU KRT8 (11758183_x_at) / Fold change /veh KRT8 (11758183_x_at) / RFU CNN1 (11734310_a_at) / Fold change /veh CNN1 (11734310_a_at) / RFU VPS37D (11726825_at) / Fold change /veh VPS37D (11726825_at) / RFU C10orf10 (11716522_x_at) / Fold change /veh C10orf10 (11716522_x_at) / RFU KIR2DL2 /// KIR2DL4 /// KIR2DL5A /// KIR2DL5B /// KIR2DS1 /// KIR2DS2 /// KIR2DS3 /// KIR2DS4 /// KIR3DL3 /// KIR3DL3 /// KIR3DS1 (11738374_at) / Fold change /veh KIR2DL2 /// KIR2DL4 /// KIR2DL5A /// KIR2DL5B /// KIR2DS1 /// KIR2DS2 /// KIR2DS3 /// KIR2DS4 /// KIR3DL3 /// KIR3DL3 /// KIR3DS1 (11738374_at) / RFU C1QL1 (11718748_at) / Fold change /veh C1QL1 (11718748_at) / RFU TMPRSS4 (11747572_a_at) / Fold change /veh TMPRSS4 (11747572_a_at) / RFU HAMP (11756126_x_at) / Fold change /veh HAMP (11756126_x_at) / RFU RNFT2 (11725882_a_at) / Fold change /veh RNFT2 (11725882_a_at) / RFU NR4A2 (11747474_a_at) / Fold change /veh NR4A2 (11747474_a_at) / RFU ABCC12 (11746883_a_at) / Fold change /veh ABCC12 (11746883_a_at) / RFU TMEM136 (11760407_x_at) / Fold change /veh TMEM136 (11760407_x_at) / RFU CLDN22 /// WWC2 (11732394_at) / Fold change /veh CLDN22 /// WWC2 (11732394_at) / RFU HLA-DPB1 (11760878_x_at) / Fold change /veh HLA-DPB1 (11760878_x_at) / RFU SPINT1 (11716480_a_at) / Fold change /veh SPINT1 (11716480_a_at) / RFU GAP43 (11754022_s_at) / Fold change /veh GAP43 (11754022_s_at) / RFU A4GNT (11735810_at) / Fold change /veh A4GNT (11735810_at) / RFU PRB3 (11715151_x_at) / Fold change /veh PRB3 (11715151_x_at) / RFU TUBB4B (11761932_at) / Fold change /veh TUBB4B (11761932_at) / RFU CAPN14 (11732068_a_at) / Fold change /veh CAPN14 (11732068_a_at) / RFU TMCC2 (11721928_a_at) / Fold change /veh TMCC2 (11721928_a_at) / RFU IRGQ (11745062_a_at) / Fold change /veh IRGQ (11745062_a_at) / RFU FAM174B (11720279_a_at) / Fold change /veh FAM174B (11720279_a_at) / RFU TMPRSS4 (11748680_a_at) / Fold change /veh TMPRSS4 (11748680_a_at) / RFU FAM212B (11763350_a_at) / Fold change /veh FAM212B (11763350_a_at) / RFU PLEKHG5 (11743358_a_at) / Fold change /veh PLEKHG5 (11743358_a_at) / RFU ZSCAN30 (11745921_a_at) / Fold change /veh ZSCAN30 (11745921_a_at) / RFU CMKLR1 (11741424_a_at) / Fold change /veh CMKLR1 (11741424_a_at) / RFU LOC101060620 /// MAPK8IP1 (11723275_at) / Fold change /veh LOC101060620 /// MAPK8IP1 (11723275_at) / RFU SPTSSB (11747773_x_at) / Fold change /veh SPTSSB (11747773_x_at) / RFU PRSS12 (11739890_at) / Fold change /veh PRSS12 (11739890_at) / RFU BIN1 (11741810_x_at) / Fold change /veh BIN1 (11741810_x_at) / RFU WNT11 (11732464_a_at) / Fold change /veh WNT11 (11732464_a_at) / RFU C10orf10 (11716521_a_at) / Fold change /veh C10orf10 (11716521_a_at) / RFU C5orf56 (11738089_at) / Fold change /veh C5orf56 (11738089_at) / RFU CYB561 (11721691_x_at) / Fold change /veh CYB561 (11721691_x_at) / RFU ANKRD19P (11752326_a_at) / Fold change /veh ANKRD19P (11752326_a_at) / RFU OR2T12 /// OR2T33 /// OR2T8 (11738714_s_at) / Fold change /veh OR2T12 /// OR2T33 /// OR2T8 (11738714_s_at) / RFU VCAN (11748164_a_at) / Fold change /veh VCAN (11748164_a_at) / RFU JSRP1 (11732532_at) / Fold change /veh JSRP1 (11732532_at) / RFU KRTAP10-11 (11738290_x_at) / Fold change /veh KRTAP10-11 (11738290_x_at) / RFU MYO3A (11730013_a_at) / Fold change /veh MYO3A (11730013_a_at) / RFU EBF3 (11725865_a_at) / Fold change /veh EBF3 (11725865_a_at) / RFU CAMK2N1 (11719241_x_at) / Fold change /veh CAMK2N1 (11719241_x_at) / RFU C5orf56 (11738088_a_at) / Fold change /veh C5orf56 (11738088_a_at) / RFU OLFML3 (11715873_a_at) / Fold change /veh OLFML3 (11715873_a_at) / RFU LOC100653217 /// NTM (11731650_a_at) / Fold change /veh LOC100653217 /// NTM (11731650_a_at) / RFU MAPK11 (11762145_a_at) / Fold change /veh MAPK11 (11762145_a_at) / RFU FIZ1 (11724087_x_at) / Fold change /veh FIZ1 (11724087_x_at) / RFU OASL (11726364_x_at) / Fold change /veh OASL (11726364_x_at) / RFU SOX15 (11748057_x_at) / Fold change /veh SOX15 (11748057_x_at) / RFU CD79A (11719716_a_at) / Fold change /veh CD79A (11719716_a_at) / RFU HIST1H1D (11736915_at) / Fold change /veh HIST1H1D (11736915_at) / RFU CASKIN2 (11723855_a_at) / Fold change /veh CASKIN2 (11723855_a_at) / RFU LOC730098 (11760151_x_at) / Fold change /veh LOC730098 (11760151_x_at) / RFU OR4N2 (11742367_at) / Fold change /veh OR4N2 (11742367_at) / RFU PRRT2 (11749266_a_at) / Fold change /veh PRRT2 (11749266_a_at) / RFU SNX32 (11753110_a_at) / Fold change /veh SNX32 (11753110_a_at) / RFU CDHR5 (11726645_a_at) / Fold change /veh CDHR5 (11726645_a_at) / RFU RCAN1 (11760418_a_at) / Fold change /veh RCAN1 (11760418_a_at) / RFU FAM167A (11723789_a_at) / Fold change /veh FAM167A (11723789_a_at) / RFU FAM26E (11764081_at) / Fold change /veh FAM26E (11764081_at) / RFU ISYNA1 (11749810_s_at) / Fold change /veh ISYNA1 (11749810_s_at) / RFU ACY1 (11761880_at) / Fold change /veh ACY1 (11761880_at) / RFU 11764098_at / Fold change /veh 11764098_at / RFU SAMD14 (11745864_x_at) / Fold change /veh SAMD14 (11745864_x_at) / RFU NPB (11741838_a_at) / Fold change /veh NPB (11741838_a_at) / RFU TMPRSS6 (11731388_a_at) / Fold change /veh TMPRSS6 (11731388_a_at) / RFU KRTAP10-2 (11738614_at) / Fold change /veh KRTAP10-2 (11738614_at) / RFU ARHGAP8 /// PRR5-ARHGAP8 (11727945_x_at) / Fold change /veh ARHGAP8 /// PRR5-ARHGAP8 (11727945_x_at) / RFU KRTAP5-7 /// NADSYN1 (11734609_at) / Fold change /veh KRTAP5-7 /// NADSYN1 (11734609_at) / RFU RASL12 (11751679_a_at) / Fold change /veh RASL12 (11751679_a_at) / RFU CDKN2B (11736163_a_at) / Fold change /veh CDKN2B (11736163_a_at) / RFU PRF1 (11729649_at) / Fold change /veh PRF1 (11729649_at) / RFU, ZNF638 /// ZNF638-IT1 / Fold change vs veh, ZNF638 /// ZNF638-IT1 / RFU, PANK3 / Fold change vs veh, PANK3 / RFU, SH3YL1 / Fold change vs veh, SH3YL1 / RFU, ZEB2 / Fold change vs veh, ZEB2 / RFU, NRIP1 / Fold change vs veh, NRIP1 / RFU, PTTG1IP / Fold change vs veh, PTTG1IP / RFU, CAPN2 / Fold change vs veh, CAPN2 / RFU, MED14 / Fold change vs veh, MED14 / RFU, SNORA58 / Fold change vs veh, SNORA58 / RFU, C1orf63 / Fold change vs veh, C1orf63 / RFU, LRRFIP1 / Fold change vs veh, LRRFIP1 / RFU, NDUFAF7 / Fold change vs veh, NDUFAF7 / RFU, SLC12A2 / Fold change vs veh, SLC12A2 / RFU, IBTK / Fold change vs veh, IBTK / RFU, ESF1 / Fold change vs veh, ESF1 / Fold change vs veh, TMEM50B / RFU, TAOK1 / Fold change vs veh, TAOK1 / RFU, ACBD3 / Fold change vs veh, ACBD3 / RFU, TMA16 / Fold change vs veh, TMA16 / RFU, RWDD3 / Fold change vs veh, RWDD3 / RFU, BCAT1 / Fold change vs veh, BCAT1 / RFU, EDEM3 / Fold change vs veh, EDEM3 / RFU, TMEM33 / Fold change vs veh, TMEM33 / RFU, WDR75 / Fold change vs veh, WDR75 / RFU, AHCTF1 / Fold change vs veh, AHCTF1 / RFU, TFRC / Fold change vs veh, TFRC / RFU, ZDHHC17 / Fold change vs veh, ZDHHC17 / RFU, NOM1 / Fold change vs veh, NOM1 / RFU, ARL8B / Fold change vs veh, ARL8B / RFU, ZBTB11 / Fold change vs veh, ZBTB11 / RFU, TAMM41 / Fold change vs veh, TAMM41 / RFU, KIAA1704 /// LOC100996395 / Fold change vs veh, KIAA1704 /// LOC100996395 / RFU, ING1 / Fold change vs veh, ING1 / RFU, TRMT61B / Fold change vs veh, TRMT61B / RFU, FUBP3 / Fold change vs veh, FUBP3 / RFU, TP53 / Fold change vs veh, TP53 / RFU, TNKS2 / Fold change vs veh, TNKS2 / RFU, ZFP14 / Fold change vs veh, ZFP14 / RFU, ACTR2 / Fold change vs veh, ACTR2 / RFU, PPP3R1 / Fold change vs veh, PPP3R1 / RFU, PIK3R1 / Fold change vs veh, PIK3R1 / RFU, HNRNPA1 / Fold change vs veh, HNRNPA1 / RFU, RNF170 / Fold change vs veh, RNF170 / RFU, ZNF28 / Fold change vs veh, ZNF28 / RFU, RNGTT / Fold change vs veh, RNGTT / RFU, OGT / Fold change vs veh, OGT / RFU, BRD1 / Fold change vs veh, BRD1 / RFU, MARS / Fold change vs veh, MARS / RFU, ZNF655 / Fold change vs veh, ZNF655 / RFU, FAHD1 / Fold change vs veh, FAHD1 / RFU, BDP1 / Fold change vs veh, BDP1 / RFU, LRRCC1 / Fold change vs veh, LRRCC1 / RFU, ARID1A / Fold change vs veh, ARID1A / RFU, ZNF146 / Fold change vs veh, ZNF146 / RFU, ZNF330 / Fold change vs veh, ZNF330 / RFU, GPN3 / Fold change vs veh, GPN3 / RFU, C9orf123 / Fold change vs veh, C9orf123 / RFU, N4BP2L2 / Fold change vs veh, N4BP2L2 / RFU, ARFIP1 / Fold change vs veh, ARFIP1 / RFU, FAM179B / Fold change vs veh, FAM179B / RFU, BCL10 / Fold change vs veh, BCL10 / RFU, UHRF1BP1L / Fold change vs veh, UHRF1BP1L / RFU, BET1 / Fold change vs veh, BET1 / RFU, CNOT2 / Fold change vs veh, CNOT2 / RFU, ZNF268 / Fold change vs veh, ZNF268 / Fold change vs veh, ZNF507 / RFU, DGCR2 / Fold change vs veh, DGCR2 / RFU, WDSUB1 / Fold change vs veh, WDSUB1 / Fold change vs veh, HSP90B1 /// MIR3652 / RFU, ADSS / Fold change vs veh, ADSS / RFU, GK / Fold change vs veh, GK / RFU, ZNF148 / Fold change vs veh, ZNF148 / RFU, TAF9 / Fold change vs veh, TAF9 / RFU, SLC1A5 / Fold change vs veh, SLC1A5 / RFU, SLMO2 / Fold change vs veh, SLMO2 / RFU, ABCC4 / Fold change vs veh, ABCC4 / RFU, LOC101060439 /// RAP1B / Fold change vs veh, LOC101060439 /// RAP1B / RFU, RFX7 / Fold change vs veh, RFX7 / RFU, GTPBP10 / Fold change vs veh, GTPBP10 / RFU, CNEP1R1 / Fold change vs veh, CNEP1R1 / RFU, BIVM-ERCC5 /// ERCC5 / Fold change vs veh, BIVM-ERCC5 /// ERCC5 / RFU, ILF3 / Fold change vs veh, ILF3 / RFU 11762660_at / Fold change /veh 11762660_at / RFU VCAN (11757783_s_at) / Fold change /veh VCAN (11757783_s_at) / RFU DDX43 (11728927_at) / Fold change /veh DDX43 (11728927_at) / RFU KRT8 (11758188_x_at) / Fold change /veh KRT8 (11758188_x_at) / RFU NKD1 (11759106_at) / Fold change /veh NKD1 (11759106_at) / RFU SRD5A1 (11742802_a_at) / Fold change /veh SRD5A1 (11742802_a_at) / RFU TPSAB1 /// TPSB2 (11721975_s_at) / Fold change /veh TPSAB1 /// TPSB2 (11721975_s_at) / RFU GSTM3 (11746129_a_at) / Fold change /veh GSTM3 (11746129_a_at) / RFU IL23R (11737362_x_at) / Fold change /veh IL23R (11737362_x_at) / RFU TMEM51 (11727254_a_at) / Fold change /veh TMEM51 (11727254_a_at) / RFU PIWIL2 (11732686_x_at) / Fold change /veh PIWIL2 (11732686_x_at) / RFU ORM1 (11744905_x_at) / Fold change /veh ORM1 (11744905_x_at) / RFU CCDC152 (11743942_at) / Fold change /veh CCDC152 (11743942_at) / RFU ECM1 (11717891_a_at) / Fold change /veh ECM1 (11717891_a_at) / RFU IL23R (11748794_a_at) / Fold change /veh IL23R (11748794_a_at) / RFU TNFAIP8L3 (11732012_x_at) / Fold change /veh TNFAIP8L3 (11732012_x_at) / RFU MBOAT4 (11741988_at) / Fold change /veh MBOAT4 (11741988_at) / RFU 11764193_at / Fold change /veh 11764193_at / RFU TMEM53 (11763286_at) / Fold change /veh TMEM53 (11763286_at) / RFU MAGEB2 (11727129_at) / Fold change /veh MAGEB2 (11727129_at) / RFU TMEM200A (11744735_a_at) / Fold change /veh TMEM200A (11744735_a_at) / RFU CCDC152 (11751479_a_at) / Fold change /veh CCDC152 (11751479_a_at) / RFU FAM211A (11726209_a_at) / Fold change /veh FAM211A (11726209_a_at) / RFU RGS16 (11746705_a_at) / Fold change /veh RGS16 (11746705_a_at) / RFU VCAN (11755009_s_at) / Fold change /veh VCAN (11755009_s_at) / RFU RHOB (11743442_s_at) / Fold change /veh RHOB (11743442_s_at) / RFU RGS16 (11720943_a_at) / Fold change /veh RGS16 (11720943_a_at) / RFU RGS16 (11720944_at) / Fold change /veh RGS16 (11720944_at) / RFU, VPS4B / Fold change vs veh, VPS4B / RFU, CREB1 / Fold change vs veh, CREB1 / RFU, DNAJC13 / Fold change vs veh, DNAJC13 / RFU, GNAQ / Fold change vs veh, GNAQ / RFU, CDK5R1 / Fold change vs veh, CDK5R1 / RFU, ZRANB3 / Fold change vs veh, ZRANB3 / RFU, CUL4A / Fold change vs veh, CUL4A / RFU, CCNY / Fold change vs veh, CCNY / RFU, UFL1 / Fold change vs veh, UFL1 / RFU, COG3 / Fold change vs veh, COG3 / RFU, DIAPH2 / Fold change vs veh, DIAPH2 / RFU, SKA2 / Fold change vs veh, SKA2 / RFU, AFF3 / Fold change vs veh, AFF3 / RFU, LMF1 / Fold change vs veh, LMF1 / RFU, IPO11 / Fold change vs veh, IPO11 / RFU, DFFB / Fold change vs veh, DFFB / RFU, FOXP1 / Fold change vs veh, FOXP1 / RFU, CARD8 / Fold change vs veh, CARD8 / RFU, STRN3 / Fold change vs veh, STRN3 / RFU, ADK / Fold change vs veh, ADK / RFU, RASSF2 / Fold change vs veh, RASSF2 / RFU, WIPF1 / Fold change vs veh, WIPF1 / RFU, LARP1B / Fold change vs veh, LARP1B / RFU, RASA1 / Fold change vs veh, RASA1 / RFU, RB1 / Fold change vs veh, RB1 / RFU, PPFIA1 / Fold change vs veh, PPFIA1 / RFU, MAT2A / Fold change vs veh, MAT2A / RFU, CCT5 / Fold change vs veh, CCT5 / RFU, WDR92 / Fold change vs veh, WDR92 / RFU, CUX1 / Fold change vs veh, CUX1 / RFU, TTC7A / Fold change vs veh, TTC7A / RFU, TMEM135 / Fold change vs veh, TMEM135 / RFU, DEPTOR / Fold change vs veh, DEPTOR / RFU, CPM / Fold change vs veh, CPM / RFU, DNAJB6 / Fold change vs veh, DNAJB6 / RFU, CACNA2D3 / Fold change vs veh, CACNA2D3 / RFU, DTX4 / Fold change vs veh, DTX4 / RFU, TFCP2 / Fold change vs veh, TFCP2 / RFU, GMCL1 /// GMCL1P1 / Fold change vs veh, GMCL1 /// GMCL1P1 / RFU, AEBP2 / Fold change vs veh, AEBP2 / RFU, SNHG1 /// SNORD22 /// SNORD25 /// SNORD26 /// SNORD27 /// SNORD28 /// SNORD29 /// SNORD31 / Fold change vs veh, SNHG1 /// SNORD22 /// SNORD25 /// SNORD26 /// SNORD27 /// SNORD28 /// SNORD29 /// SNORD31 / Fold change (Aza/veh), C12orf56 (ProbeSet 11735607_a_at) / Fold change (ACY-1035/veh), C12orf56 (ProbeSet 11735607_a_at) / Fold change (Aza/veh), FGFR1OP (ProbeSet 11751329_s_at) / Fold change (ACY-1035/veh), FGFR1OP (ProbeSet 11751329_s_at) / Fold change (Aza/veh), VPS36 (ProbeSet 11739960_a_at) / Fold change (ACY-1035/veh), VPS36 (ProbeSet 11739960_a_at) / RFU SYPL1 (11715823_x_at) / Fold change /veh SYPL1 (11715823_x_at) / RFU IGFBP7 (11715501_s_at) / Fold change /veh IGFBP7 (11715501_s_at) / RFU REEP3 (11722064_at) / Fold change /veh REEP3 (11722064_at) / RFU IGLL1 (11728026_x_at) / Fold change /veh IGLL1 (11728026_x_at): dose or concentration left out as unconfirmed
Details: MV-4-11 cells, 48 hours

With `Nc1ccc(-c2cccs2)cc1NC(=O)c1ccc2c(c1)cc(C1CC1)n2CCN1CCOCC1` [ACY-1035] the “RFU VCAN (11757783_s_at)” value was 8.50 RFU.

From paper PMC5218480 (PLoS ONE, 2017)
